Test results: ChEMBL document CHEMBL1123021, “3-Amino-beta-carboline derivatives and the benzodiazepine receptor. Synthesis of a selective antagonist of the sedative action of diazepam” (J Med Chem, 1985)

Molecular target: GABA-A receptor; anion channel
Assay: Inhibition of [3H]- flunitrazepam binding to GABA-A Benzodiazepine receptor of rat cerebral cortex membranes
Format: cell membranes, Membrane

IC50	Compound
0.071 µM	COC(=O)Nc1cc2c3ccccc3nc-2c[nH]1
4.7 µM	O=CNc1cc2c3ccccc3nc-2c[nH]1
4 µM	CC(=O)Nc1cc2c3ccccc3nc-2c[nH]1
0.46 µM	CCNc1cc2c3ccccc3nc-2c[nH]1
0.08 µM	CCOC(=O)Nc1cc2c3ccccc3nc-2c[nH]1
62 µM	CS(=O)(=O)Nc1cc2c3ccccc3nc-2c[nH]1
25 µM	Nc1cc2c(cn1)[nH]c1ccccc12
6.3 µM	O=C(Nc1cc2c3ccccc3nc-2c[nH]1)C(F)(F)F

Compound	IC50
CCOC(=O)c1cc2c(cn1)[nH]c1ccccc12	0.002 µM
